In ChEMBL document CHEMBL1201862, “PubChem BioAssay data set” (2004):
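48-hour exposure; five concentrations; linearly interpolated endpoints. The concentration for 50% growth inhibition is given as GI50.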 The source made the active and inactive calls. Cut-off read from the data, not from the text of the source: active = GI50 up to about 1.1 µM and inactive = higher.

Key:
Assay in all cases: DTP human tumour cell line panel, 48 h
CCRF-CEM = test system: CCRF-CEM
MDA-MB-231 = test system: MDA-MB-231
MCF7 = test system: MCF7
HCC 2998 = test system: HCC 2998
UO-31 = test system: UO-31
NCI-H23 = test system: NCI-H23
SNB-75 = test system: SNB-75
T47D = test system: T47D
NCI-H460 = test system: NCI-H460
UACC-62 = test system: UACC-62
HT-29 = test system: HT-29
U-251 = test system: U-251
NCI-H522 = test system: NCI-H522
MDA-MB-435 = test system: MDA-MB-435
RXF 393 = test system: RXF 393
Hs-578T = test system: Hs-578T
PC-3 = test system: PC-3
M14 = test system: M14
A498 = test system: A498
HOP-92 = test system: HOP-92

Compound | GI50 (CCRF-CEM) | GI50 (MDA-MB-231) | GI50 (MCF7) | GI50 (HCC 2998) | GI50 (UO-31) | GI50 (NCI-H23) | GI50 (SNB-75) | GI50 (T47D) | GI50 (NCI-H460) | GI50 (UACC-62) | GI50 (HT-29) | GI50 (U-251) | GI50 (NCI-H522) | GI50 (MDA-MB-435) | GI50 (RXF 393) | GI50 (Hs-578T) | GI50 (PC-3) | GI50 (M14) | GI50 (A498) | GI50 (HOP-92)
O=c1c(SSc2coc3cc(F)ccc3c2=O)coc2cc(F)ccc12 | 3.58 µM (inactive) | 11.5 µM (inactive) | 14.6 µM (inactive) | 16.1 µM (inactive) | 11.4 µM (inactive) | 25.1 µM (inactive) | 11 µM (inactive) | 20.7 µM (inactive) | 4.43 µM (inactive) | 16.1 µM (inactive) | 15.3 µM (inactive) | 21.3 µM (inactive) | 20.7 µM (inactive) | 11.1 µM (inactive) | 32.2 µM (inactive) | 14.3 µM (inactive) | 7.82 µM (inactive) |  |  | 
O=C1C2SC34c5c2c2ccccc2n5CCC3CCCN14 (stereo unspecified) |  | 39.6 µM (inactive) | > 100 µM (inactive) |  | > 100 µM (inactive) | > 100 µM (inactive) |  | 91.2 µM (inactive) |  | > 100 µM (inactive) | > 100 µM (inactive) | 33.9 µM (inactive) | 56.8 µM (inactive) | 89.1 µM (inactive) | 98.4 µM (inactive) | 38.1 µM (inactive) | 54.8 µM (inactive) | > 100 µM (inactive) | > 100 µM (inactive) | 34.9 µM (inactive)
Cc1cccc(Cn2c3c(c4cc(O)ccc42)C(=O)c2ccccc2C3=O)c1 | 28.1 µM (inactive) | 6.35 µM (inactive) | 23.2 µM (inactive) |  | > 54.2 µM (inactive) | 15.4 µM (inactive) | 1.97 µM (inactive) | > 100 µM (inactive) | 25.6 µM (inactive) | 11.1 µM (inactive) | > 58.5 µM (inactive) | 8.59 µM (inactive) |  | > 80.9 µM (inactive) | 5.6 µM (inactive) | 24.4 µM (inactive) | 6.27 µM (inactive) | > 100 µM (inactive) | > 90.8 µM (inactive) | 
Nc1ccc(/N=N\c2ccc(-c3ccc(O)cc3)cc2)c2ccc(S(=O)(=O)O)cc12 | > 100 µM (inactive) | > 100 µM (inactive) | > 100 µM (inactive) |  | > 100 µM (inactive) | > 100 µM (inactive) | 77.1 µM (inactive) | > 100 µM (inactive) | > 100 µM (inactive) | > 100 µM (inactive) | > 100 µM (inactive) | > 100 µM (inactive) | > 100 µM (inactive) | > 100 µM (inactive) | > 100 µM (inactive) | > 100 µM (inactive) | > 100 µM (inactive) | > 100 µM (inactive) | > 100 µM (inactive) | > 100 µM (inactive)
CCO[C@H]1C[C@@H](c2ccccc2)[C@]2(C)C[C@H](C(=O)OC)ON2O1 | > 100 µM (inactive) | > 100 µM (inactive) | > 100 µM (inactive) |  | > 100 µM (inactive) | > 100 µM (inactive) |  | > 100 µM (inactive) |  | > 100 µM (inactive) | > 100 µM (inactive) | > 100 µM (inactive) | > 100 µM (inactive) | > 100 µM (inactive) | > 100 µM (inactive) | > 100 µM (inactive) | > 100 µM (inactive) | > 100 µM (inactive) | > 100 µM (inactive) | > 100 µM (inactive)
CCCCCCC(CCl)c1sc(-c2csc(CCNC(=O)OC(C)(C)C)n2)nc1C(=O)OC (stereo unspecified) | 17.2 µM (inactive) | 26.9 µM (inactive) | 11 µM (inactive) | 22.7 µM (inactive) | 14.9 µM (inactive) | 15.3 µM (inactive) |  | 3.53 µM (inactive) | 18.2 µM (inactive) | 13.8 µM (inactive) | 20.6 µM (inactive) | 16.2 µM (inactive) | 22 µM (inactive) | 12.5 µM (inactive) |  | 16.2 µM (inactive) | 15.9 µM (inactive) |  | 28.8 µM (inactive) | 40.8 µM (inactive)
Nc1nc(-c2ccccc2)c(CC(=O)O)s1 |  | > 100 µM (inactive) | > 100 µM (inactive) |  | > 100 µM (inactive) |  | > 100 µM (inactive) | > 100 µM (inactive) | > 100 µM (inactive) | > 100 µM (inactive) | > 100 µM (inactive) | > 100 µM (inactive) | > 100 µM (inactive) | > 100 µM (inactive) | > 100 µM (inactive) | > 100 µM (inactive) | > 100 µM (inactive) | > 100 µM (inactive) | > 100 µM (inactive) | > 100 µM (inactive)
O=C(O)CNC(=O)c1ccc(-c2ccccc2)cc1 | > 100 µM (inactive) | > 100 µM (inactive) | > 100 µM (inactive) | > 100 µM (inactive) | > 100 µM (inactive) | > 100 µM (inactive) |  | > 100 µM (inactive) | > 100 µM (inactive) | > 100 µM (inactive) |  | > 100 µM (inactive) | > 100 µM (inactive) | > 100 µM (inactive) | > 100 µM (inactive) | 75.7 µM (inactive) | > 100 µM (inactive) | > 100 µM (inactive) | > 100 µM (inactive) | 61.1 µM (inactive)
N#Cc1nc(CCCCCN2C(=O)c3ccccc3C2=O)oc1N | 1.91 µM (inactive) | > 100 µM (inactive) | > 100 µM (inactive) | 16.3 µM (inactive) | 94.4 µM (inactive) | > 100 µM (inactive) |  | > 100 µM (inactive) | > 100 µM (inactive) |  | > 100 µM (inactive) | > 100 µM (inactive) | 4.84 µM (inactive) | > 100 µM (inactive) | > 100 µM (inactive) | > 100 µM (inactive) | > 100 µM (inactive) | > 100 µM (inactive) |  | 
N=C1/C(=C/c2ccco2)C(=O)N=C2SC=NN12 | > 100 µM (inactive) | > 100 µM (inactive) | > 100 µM (inactive) | > 100 µM (inactive) | > 100 µM (inactive) | > 100 µM (inactive) | 99.1 µM (inactive) | > 100 µM (inactive) | > 100 µM (inactive) | > 100 µM (inactive) | > 100 µM (inactive) | > 100 µM (inactive) | > 100 µM (inactive) | > 100 µM (inactive) | > 100 µM (inactive) | > 100 µM (inactive) | > 100 µM (inactive) | > 100 µM (inactive) |  | > 100 µM (inactive)
CCc1ccccc1NC(=O)C(C#N)C1=C(Cl)C(=O)c2ccccc2C1=O (stereo unspecified) | 3.41 µM (inactive) | 7.03 µM (inactive) | 22.8 µM (inactive) |  | 13 µM (inactive) | 12.6 µM (inactive) | 17.3 µM (inactive) | 19.5 µM (inactive) | 19.7 µM (inactive) | 16.8 µM (inactive) | 14.1 µM (inactive) | 15.4 µM (inactive) | 13.5 µM (inactive) | 25.6 µM (inactive) | 20.5 µM (inactive) | 19.3 µM (inactive) | 14.6 µM (inactive) | 6.71 µM (inactive) |  | 29.4 µM (inactive)
CC(C)(Oc1ccc(Cl)cc1)C(=O)N(C(=O)N1CCCCC1)c1ccccc1 | 16.7 µM (inactive) | 10.6 µM (inactive) | 19.6 µM (inactive) |  | 10.8 µM (inactive) | 14.2 µM (inactive) |  | 0.891 µM (active) |  | 13.2 µM (inactive) | 8.34 µM (inactive) | 14.2 µM (inactive) |  | 16 µM (inactive) | 18 µM (inactive) | 16.9 µM (inactive) | 3.4 µM (inactive) | 17.5 µM (inactive) | 17 µM (inactive) | 
